Read-outs that look alike come from different tables or passages of the source.
Experiments:
Mino cells = assay: Antiproliferative effect, MTS cell viability assay, Mino cells; assay type: cell-based; details: Homo sapiens, Mino mantle cell lymphoma cells, read-out: IC50 (anti-proliferation) Mino cells
Method in brief: (§1)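 Cells were exposed to compound at 0, 0.001, 0.01, 0.1, 1 and 10 μM for 72 h. Viability was then measured by MTS assay, reading formazan produced by metabolically active cells as absorbance at 490 nm.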

JeKo-1 cells = assay: Antiproliferative effect, MTS cell viability assay, JeKo-1 cells; assay type: cell-based; details: Homo sapiens; JeKo-1 mantle cell lymphoma cells; read-out: IC50 (anti-proliferation) JeKO-1 cells
Method in brief: as §1

BTK = BTK (Homo sapiens, UniProt Q06187); assay: Degradation of BTK protein in Namalwa cells (Western blot; DC50, Dmax); details: for DC50: cell line not given
BTK, sequence (Q06187 whole entry): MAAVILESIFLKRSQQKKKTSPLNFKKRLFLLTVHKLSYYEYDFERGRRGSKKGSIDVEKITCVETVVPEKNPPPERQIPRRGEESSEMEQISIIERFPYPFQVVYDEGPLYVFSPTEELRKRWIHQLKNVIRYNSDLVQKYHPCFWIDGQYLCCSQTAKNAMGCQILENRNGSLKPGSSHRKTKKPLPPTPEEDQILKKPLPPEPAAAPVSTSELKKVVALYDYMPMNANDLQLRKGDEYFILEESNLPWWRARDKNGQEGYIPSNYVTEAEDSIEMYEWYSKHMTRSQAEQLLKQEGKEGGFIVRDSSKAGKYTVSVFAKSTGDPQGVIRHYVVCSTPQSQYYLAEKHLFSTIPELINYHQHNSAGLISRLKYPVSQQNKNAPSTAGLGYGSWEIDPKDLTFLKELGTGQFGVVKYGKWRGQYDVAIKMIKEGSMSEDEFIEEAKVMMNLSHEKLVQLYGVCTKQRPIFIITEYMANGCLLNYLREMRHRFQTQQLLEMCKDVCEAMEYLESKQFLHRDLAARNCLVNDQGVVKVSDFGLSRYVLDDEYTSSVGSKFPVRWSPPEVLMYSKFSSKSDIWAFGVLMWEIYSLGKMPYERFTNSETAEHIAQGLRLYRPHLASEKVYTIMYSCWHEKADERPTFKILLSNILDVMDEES

[1] = read-out: DC50 (BTK degradation), concentration giving 50% reduction of BTK expression level
[2] = read-out: Dmax (BTK degradation)

| Compound | IC50 (Mino cells; MINO) [nM] | IC50 (JeKo-1 cells) [nM] | DC50 (BTK; [1]) [nM] | Dmax (BTK; [2]) [%] | Dmax (BTK) [%] | DC50 (BTK; BTK degradation) [nM] | IC50 (Mino cells) [nM] | degradation of BTK protein (BTK; Namalwa B lymphocyte cells, various concentrations, 24 hours, Western blot) |
| --- | --- | --- | --- | --- | --- | --- | --- | --- |
| Nc1ncnc2c1c(-c1ccc(Oc3ccccc3)cc1)nn2[C@@H]1CCCN(CC2CCN(c3ccc(N4CCC(=O)NC4=O)cc3)CC2)C1 [Compound 529, (R)-1-(4-(4-((3-(4-amino-3-(4-phenoxyphenyl)-1H-pyrazolo[3,4-d]pyrimidin-1-yl)piperidin-1-yl)methyl)piperidin-1-yl)phenyl)dihydropyrimidine-2,4(1H,3H)-dione] | > 10000 | > 10000 | 10 to 50 | > 50 | – | – | – | – |
| Nc1ncnc2c1c(-c1ccc(Oc3ccccc3)cc1)nn2C1CCN(CC2CCN(CCCC(=O)N3CCC(c4ccc5c(c4)CN(C4CCC(=O)NC4=O)C5=O)CC3)CC2)CC1 (stereo not drawn) [Compound 422, 3-(5-(1-(4-(4-((4-(4-amino-3-(4-phenoxyphenyl)-1H-pyrazolo(3,4-d)pyrimidin-1-yl)piperidin-1-yl)methyl)piperidin-1-yl)butanoyl)piperidin-4-yl)-1-oxoisoindolin-2-yl)piperidine-2,6-dione] | < 1000 | < 1000 | < 10 | > 90 | – | – | – | – |
| NC(=O)c1c(-c2ccc(Oc3ccccc3)cc2)nn2c1NCC[C@H]2C1CCN(C2CCN(C(=O)N3CCC(CN4CCN(c5ccc6c(c5)CN(C5CCC(=O)NC5=O)C6=O)CC4)CC3)CC2)CC1 (stereo partly drawn) [Compound 390, (7S)-7-(1′-(4-((4-(2-(2,6-dioxopiperidin-3-yl)-1-oxoisoindolin-5-yl)piperazin-1-yl)methyl)piperidine-1-carbonyl)-[1,4′-bipiperidin]-4-yl)-2-(4-phenoxyphenyl)-4,5,6,7-tetrahydropyrazolo[1,5-a]pyrimidine-3-carboxamide] | 1000 to 10000 | > 10000 | – | – | > 90 | 10 to 50 | – | – |
| NC1=NC=NC2C1C(c1ccc(Oc3ccccc3)cc1)=NN2C1CCN(C(=O)N2CCN(C3CN(c4ccc5c(c4)C(=O)N(C4CCC(=O)NC4=O)C5=O)C3)CC2)CC1 (stereo not drawn) [Compound 503, 5-(3-(4-(4-(4-amino-3-(4-phenoxyphenyl)-3a,7a-dihydro-1H-pyrazolo[3,4-d]pyrimidin-1-yl)piperidine-1-carbonyl)piperazin-1-yl)azetidin-1-yl)-2-(2,6-dioxopiperidin-3-yl)isoindoline-1,3-dione] | < 1000 | < 1000 | 10 to 50 | > 75 | – | – | – | – |
| Nc1ncnc2c1c(-c1ccc(Oc3ccccc3)cc1)nn2C1CCN(C2CCN(CCCC3CCN(c4ccc5c(c4)CN(C4CCC(=O)NC4=O)C5=O)CC3)CC2)CC1 (stereo not drawn) [Compound 226, 3-(5-(4-(3-(4-(4-amino-3-(4-phenoxyphenyl)-1H-pyrazolo[3,4-d]pyrimidin-1-yl)-[1,4′-bipiperidin]-1′-yl)propyl)piperidin-1-yl)-1-oxoisoindolin-2-yl)piperidine-2,6-dione] | 1000 to 10000 | > 10000 | – | – | > 75 | 10 to 50 | – | – |
| Nc1ncnc2c1c(-c1ccc(Oc3ccccc3)cc1)nn2C1CCN(CC2CCN(CC3CCN(c4ccc5c(c4)CN(C4CCC(=O)NC4=O)C5=O)CC3)CC2)CC1 (stereo not drawn) [Compound 200, 3-(5-(4-((4-((4-(4-amino-3-(4-phenoxyphenyl)-1H-pyrazolo(3,4-d)pyrimidin-1-yl)piperidin-1-yl)methyl)piperidin-1-yl)methyl)piperidin-1-yl)-1-oxoisoindolin-2-yl)piperidine-2,6-dione] | – | 1000 to 10000 | – | – | < 50 | > 50 | 1000 to 10000 | dose-dependent degradation |
| Nc1ncnc2c1c(-c1ccc(Oc3ccccc3)cc1)nn2C1CCN(C2CCN(C(=O)N3CCN(CCCN4CCC(c5ccc6c(c5)CN(C5CCC(=O)NC5=O)C6=O)CC4)CC3)CC2)CC1 (stereo not drawn) [Compound 262, 3-(5-(1-(3-(4-(4-(4-amino-3-(4-phenoxyphenyl)-1H-pyrazolo[3,4-d]pyrimidin-1-yl)-[1,4′-bipiperidine]-1′-carbonyl)piperazin-1-yl)propyl)piperidin-4-yl)-1-oxoisoindolin-2-yl)piperidine-2,6-dione] | > 10000 | 1000 to 10000 | – | – | > 75 | > 50 | – | – |
| NC(=O)c1c(-c2ccc(Oc3ccccc3)cc2)nn2c1NCC[C@H]2C1CCN(CC2CCN(C(=O)N3CCC(N4CCN(c5ccc6c(c5)CN(C5CCC(=O)NC5=O)C6=O)CC4)CC3)CC2)CC1 (stereo partly drawn) [Compound 404, (7S)-7-(1-((1-(4-(4-(2-(2,6-dioxopiperidin-3-yl)-1-oxoisoindolin-5-yl)piperazin-1-yl)piperidine-1-carbonyl)piperidin-4-yl)methyl)piperidin-4-yl)-2-(4-phenoxyphenyl)-4,5,6,7-tetrahydropyrazolo[1,5-a]pyrimidine-3-carboxamide] | < 1000 | < 1000 | < 10 | > 90 | – | – | – | – |
| NC(=O)c1c(-c2ccc(Oc3ccccc3)cc2)nn2c1NCCC2C1CCN(CC2CCN(CCN3CCC(c4ccc5c(c4)CN(C4CCC(=O)NC4=O)C5=O)CC3)CC2)CC1 (stereo not drawn) [Compound 320, 7-(1-((1-(2-(4-(2-(2,6-dioxopiperidin-3-yl)-1-oxoisoindolin-5-yl)piperidin-1-yl)ethyl)piperidin-4-yl)methyl)piperidin-4-yl)-2-(4-phenoxyphenyl)-4,5,6,7-tetrahydropyrazolo[1,5-a]pyrimidine-3-carboxamide] | 1000 to 10000 | 1000 to 10000 | – | – | > 90 | 10 to 50 | – | – |
| Nc1ncnc2c1c(-c1ccc(Oc3ccccc3)cc1)nn2C1CCN(C2CCN(CC3CCN(c4ccc(NC5CCC(=O)NC5=O)cc4)CC3)CC2)CC1 (stereo not drawn) [Compound 578, 3-((4-(4-((4-(4-amino-3-(4-phenoxyphenyl)-1H-pyrazolo[3,4-d]pyrimidin-1-yl)-[1,4′-bipiperidin]-1′-yl)methyl)piperidin-1-yl)phenyl)amino)piperidine-2,6-dione] | 1000 to 10000 | 1000 to 10000 | 10 to 50 | > 90 | – | – | – | – |
| Nc1ncnc2c1c(-c1ccc(Oc3ccccc3)cc1)nn2[C@@H]1CCCN(C2CCN(C(=O)N3CC(N4CCN(c5ccc6c(c5)C(=O)N(C5CCC(=O)NC5=O)C6=O)CC4)C3)CC2)C1 (stereo partly drawn) [Compound 475, 5-(4-(1-((R)-3-(4-amino-3-(4-phenoxyphenyl)-1H-pyrazolo[3,4-d]pyrimidin-1-yl)-[1,4′-bipiperidine]-1′-carbonyl)azetidin-3-yl)piperazin-1-yl)-2-(2,6-dioxopiperidin-3-yl)isoindoline-1,3-dione] | < 1000 | 1000 to 10000 | < 10 | > 90 | – | – | – | – |
| Nc1ncnc2c1c(-c1ccc(Oc3ccccc3)cc1)nn2[C@@H]1CCCN(C2CCN(CC3CCN(c4ccc(N5CCC(=O)NC5=O)cc4)CC3)CC2)C1 [Compound 528, (R)-1-(4-(4-((3-(4-amino-3-(4-phenoxyphenyl)-1H-pyrazolo[3,4-d]pyrimidin-1-yl)-[1,4′-bipiperidin]-1′-yl)methyl)piperidin-1-yl)phenyl)dihydropyrimidine-2,4(1H,3H)-dione] | 1000 to 10000 | 1000 to 10000 | 10 to 50 | > 75 | – | – | – | – |
| Nc1ncnc2c1c(-c1ccc(Oc3ccccc3)cc1)nn2C1CCN(CCN2CCC(CN3CCC(c4ccc5c(c4)oc(=O)n5C4CCC(=O)NC4=O)CC3)CC2)CC1 (stereo not drawn) [Compound 545, 3-(6-(1-((1-(2-(4-(4-amino-3-(4-phenoxyphenyl)-1H-pyrazolo[3,4-d]pyrimidin-1-yl)piperidin-1-yl)ethyl)piperidin-4-yl)methyl)piperidin-4-yl)-2-oxobenzo[d]oxazol-3(2H)-yl)piperidine-2,6-dione] | < 1000 | 1000 to 10000 | 10 to 50 | > 90 | – | – | – | – |
| Nc1ncnc2c1c(-c1ccc(Oc3ccccc3)cc1)nn2C1CCN(C2CCN(C(=O)N3CCN(C4CCN(c5ccc6c(c5)C(=O)N(C5CCC(=O)NC5=O)C6=O)CC4)CC3)CC2)CC1 (stereo not drawn) [Compound 233, 5-(4-(4-(4-(4-amino-3-(4-phenoxyphenyl)-1H-pyrazolo[3,4-d]pyrimidin-1-yl)-[1,4′-bipiperidine]-1′-carbonyl)piperazin-1-yl)piperidin-1-yl)-2-(2,6-dioxopiperidin-3-yl)isoindoline-1,3-dione] | 1000 to 10000 | 1000 to 10000 | – | – | > 75 | > 50 | – | – |
| NC(=O)c1c(-c2ccc(Oc3ccccc3)cc2)nn2c1NCCC2C1CCN(C2CCN(C(=O)N3CCN(Cc4ccc5c(c4)C(=O)N(C4CCC(=O)NC4=O)C5=O)CC3)CC2)CC1 (stereo not drawn) [Compound 339, 7-(1′-(4-((2-(2,6-dioxopiperidin-3-yl)-1,3-dioxoisoindolin-5-yl)methyl)piperazine-1-carbonyl)-[1,4′-bipiperidin]-4-yl)-2-(4-phenoxyphenyl)-4,5,6,7-tetrahydropyrazolo[1,5-a]pyrimidine-3-carboxamide] | > 10000 | > 10000 | – | – | > 50 | > 50 | – | – |
| Nc1ncnc2c1c(-c1ccc(Oc3ccccc3)cc1)nn2C1CCN(CC2CCN(CC3CCN(c4ccc5c(c4)C(=O)N(C4CCC(=O)NC4=O)C5=O)CC3)CC2)CC1 (stereo not drawn) [Compound 199, 5-(4-((4-((4-(4-amino-3-(4-phenoxyphenyl)-1H-pyrazolo(3,4-d)pyrimidin-1-yl)piperidin-1-yl)methyl)piperidin-1-yl)methyl)piperidin-1-yl)-2-(2,6-dioxopiperidin-3-yl)isoindoline-1,3-dione] | < 1000 | 1000 to 10000 | – | – | > 90 | 10 to 50 | – | – |
| Nc1ncnc2c1c(-c1ccc(Oc3ccccc3)cc1)nn2C1CCN(CC2CCN(CCCN3CCN(c4ccc(N5CCC(=O)NC5=O)cc4)CC3)CC2)CC1 [Compound 582, 1-(4-(4-(3-(4-((4-(4-amino-3-(4-phenoxyphenyl)-1H-pyrazolo[3,4-d]pyrimidin-1-yl)piperidin-1-yl)methyl)piperidin-1-yl)propyl)piperazin-1-yl)phenyl)dihydropyrimidine-2,4(1H,3H)-dione] | < 1000 | 1000 to 10000 | 10 to 50 | > 90 | – | – | – | – |

Source: patent US12139492B2 (Endotarget Inc., priority 2021, dated 2024)
